Laboratory results reported in ChEMBL document CHEMBL6083254, “Optimization of B-Ring-Functionalized Antimalarial Tambjamines and Prodiginines” (J Med Chem, 2024).
Calls of active or inactive are those of the source. The calls are words filed in the database; no cut-off is given here.

How the values were obtained:
[1] = tested on: Plasmodium yoelii; assay: Antiplasmodial activity against asexual erythrocytic stage of Plasmodium yoelii infected in female CFI mouse model at 25 mg/kg, po administered once daily for 4 days and measured on day 5 by Giemsa staining based microscopic analysis; format: functional, organism-based; conditions: time 5.0 day
[2] = tested on: Plasmodium yoelii; assay: Antiplasmodial activity against asexual erythrocytic stage of Plasmodium yoelii infected in female CFI mouse model assessed as reduction in parasitemia at 10 mg/kg, po administered once daily for 4 days and measured on day 5 by Giemsa staining based microscopic analysis relative to control; format: functional
[3] = tested on: Plasmodium yoelii; assay: Antiplasmodial activity against asexual erythrocytic stage of Plasmodium yoelii infected in female CFI mouse model assessed as reduction in parasitemia at 25 mg/kg, po administered once daily for 4 days and measured on day 5 by Giemsa staining based microscopic analysis relative to control; format: functional; parameters: scale not given: the % may be the effect or the level left; conditions: time 5 day
[4] = tested on: HepG2; assay: Cytotoxicity against human HepG2 cells assessed as cell viability incubated for 72 hrs by MTT assay; format: toxicity, cell-based; conditions: hepg2
[5] = tested on: Plasmodium yoelii; assay: Antiplasmodial activity against asexual erythrocytic stage of Plasmodium yoelii infected in female CFI mouse model assessed as reduction in parasitemia at 3 mg/kg, po administered once daily for 4 days and measured on day 5 by Giemsa staining based microscopic analysis relative to control; format: functional
[6] = tested on: Plasmodium falciparum; assay: microbe, parasite or virus in culture; conditions: D6, 72 h
[7] = in vitro; conditions: human
Description: Selectivity index, ratio of IC50 for cytotoxicity against human HepG2 cells assessed as cell viability to IC50 for antiplasmodial activity against asexual erythrocytic stage of Plasmodium falciparum D6 assessed as inhibition of parasitic growth incubated

[8] = tested on: Plasmodium yoelii; assay: Antiplasmodial activity against asexual erythrocytic stage of Plasmodium yoelii infected in female CFI mouse model assessed as reduction in parasitemia at 1 mg/kg, po administered once daily for 4 days and measured on day 5 by Giemsa staining based microscopic analysis relative to control; format: functional
[9] = tested on: Plasmodium falciparum; assay: microbe, parasite or virus in culture; conditions: Tm90-C2B, 72 h
[10] = tested on: Plasmodium falciparum; assay: microbe, parasite or virus in culture; conditions: Dd2, 72 h
[11] = Aqueous solubility of compound in PBS buffer at pH 7.4 incubated for 90 mins by UV-vis spectroscopic analysis; conditions: pH 7.4, 1.5 h
[12] = Metabolic stability in mouse liver microsomes assessed as half life measured upto 60 mins LC-MS analysis
[13] = Metabolic stability in human liver microsomes assessed as intrinsic clearance measured upto 60 mins LC-MS analysis
[14] = Metabolic stability in human liver microsomes assessed as half life measured upto 60 mins LC-MS analysis
[15] = Metabolic stability in mouse liver microsomes assessed as intrinsic clearance measured upto 60 mins LC-MS analysis

Structure (SMILES) | Activity [1] | Activity ([2]; time 5.0 day) | Activity [3] | IC50 [4] | Activity ([5]; time 5.0 day) | IC50 [6] | selectivity ratio [7] | Activity ([8]; time 5.0 day) | IC50 [9] | IC50 [10] | solubility [11] | half-life at 1 h [12] | microsomal CLint at 1 h [13] | half-life at 1 h [14] | microsomal CLint at 1 h [15] | Activity ([2]; time 5 day) | Activity ([5]; time 5 day) | Activity ([8]; time 5 day)
CCCCCCCCCCCc1ccc(/C=C2\N=C(c3ccc[nH]3)C=C2OC(C)C)[nH]1.Cl | inactive | inactive | 100% | 87.3 µM | inactive | 0.0269 µM | 3240 | inactive | 0.0356 µM | 0.0182 µM | – | – | – | – | – | – | – | –
CCCCCc1cc(/C=C2\N=C(c3ccc[nH]3)C=C2OCc2ccc(Cl)cc2)[nH]c1C.Cl | – | inactive | 97.1% | 10.5 µM | inactive | 0.00713 µM | 1480 | inactive | 0.00873 µM | 0.00444 µM | – | – | – | – | – | – | – | –
CCCCCCCCCCCc1ccc(/C=C2\N=C(c3ccc[nH]3)C=C2OCCC)[nH]1.Cl | inactive | inactive | 100% | 18.9 µM | inactive | 0.00671 µM | 2810 | inactive | 0.00801 µM | 0.00756 µM | – | – | – | – | – | – | – | –
CCN(CC)CCCC(C)Nc1ccnc2cc(Cl)ccc12 (stereo not drawn) [CHLOROQUINE] | inactive | inactive | 100% | – | inactive | – | – | inactive | – | – | – | – | – | – | – | – | – | –
CCCCCCCCCCCc1ccc(/C=C2\N=C(c3ccc[nH]3)C=C2OCC)[nH]1.Cl | inactive | inactive | 100% | 21 µM | inactive | 0.00441 µM | 4750 | inactive | 0.00402 µM | 0.00345 µM | < 3.125 µM | 41.9 min | 19.1 µL/min/mg | > 60 min | 33.1 µL/min/mg | – | – | –
CCCCCCCCCCCc1ccc(/C=C2\N=C(c3ccc[nH]3)C=C2OCc2ccccc2)[nH]1.Cl | – | inactive | 62.3% | 53.6 µM | inactive | – | 2020 | inactive | 0.0224 µM | 0.0264 µM | < 3.125 µM | > 60 min | 7.29 µL/min/mg | > 60 min | 4.03 µL/min/mg | – | – | –
CCOC1=CC(c2ccc[nH]2)=N/C1=C\NC12CC3CC(CC(C3)C1)C2.Cl | – | – | 24% | 1.07 µM | – | 0.000497 µM | 2150 | – | 0.000715 µM | 0.00077 µM | 115 µM | 32.7 min | 78.3 µL/min/mg | 17.7 min | 42.4 µL/min/mg | – | – | –
CCCCCc1cc(/C=C2\N=C(c3ccc[nH]3)C=C2OCc2ccc(OC(F)(F)F)cc2)[nH]c1C.Cl | inactive | inactive | 100% | 6.52 µM | inactive | 0.00724 µM | 900 | inactive | 0.0125 µM | 0.00797 µM | – | – | – | – | – | – | – | –
CCCCCc1cc(/C=C2\N=C(c3ccc[nH]3)C=C2OCc2ccccc2)[nH]c1C.Cl | – | – | 100% | 7.09 µM | – | 0.00791 µM | 896 | – | 0.00973 µM | 0.00425 µM | < 3.125 µM | > 60 min | 3.89 µL/min/mg | > 60 min | 7.33 µL/min/mg | 86.9% | 43.3% | 16.8%
C1=C(Oc2ccccc2)/C(=C/NC23CC4CC(CC(C4)C2)C3)N=C1c1ccc[nH]1.Cl | – | – | >99% | 8.57 µM | – | 0.0259 µM | 331 | – | 0.0177 µM | 0.022 µM | 7.88 µM | > 60 min | 40 µL/min/mg | 34.7 min | 18.9 µL/min/mg | – | – | –
